Results from ChEMBL document CHEMBL3774305, “Design, synthesis, and biological evaluation of arylpiperazine-benzylpiperidines with dual serotonin and norepinephrine reuptake inhibitory activities” (Bioorg Med Chem, 2016).
pIC50: −log10 of the molar value.

How the values were obtained:
Format in all cases: cell-based
[1] = target: T1, Sodium-dependent serotonin transporter (Homo sapiens, UniProt P31645); test: Inhibition of [3H]-5-HT reuptake in human SERT transfected into HEK293 cells at 1 uM by liquid scintillation counting method relative to venlafaxine HCl
Target sequence in this assay (P31645 whole entry, looked up): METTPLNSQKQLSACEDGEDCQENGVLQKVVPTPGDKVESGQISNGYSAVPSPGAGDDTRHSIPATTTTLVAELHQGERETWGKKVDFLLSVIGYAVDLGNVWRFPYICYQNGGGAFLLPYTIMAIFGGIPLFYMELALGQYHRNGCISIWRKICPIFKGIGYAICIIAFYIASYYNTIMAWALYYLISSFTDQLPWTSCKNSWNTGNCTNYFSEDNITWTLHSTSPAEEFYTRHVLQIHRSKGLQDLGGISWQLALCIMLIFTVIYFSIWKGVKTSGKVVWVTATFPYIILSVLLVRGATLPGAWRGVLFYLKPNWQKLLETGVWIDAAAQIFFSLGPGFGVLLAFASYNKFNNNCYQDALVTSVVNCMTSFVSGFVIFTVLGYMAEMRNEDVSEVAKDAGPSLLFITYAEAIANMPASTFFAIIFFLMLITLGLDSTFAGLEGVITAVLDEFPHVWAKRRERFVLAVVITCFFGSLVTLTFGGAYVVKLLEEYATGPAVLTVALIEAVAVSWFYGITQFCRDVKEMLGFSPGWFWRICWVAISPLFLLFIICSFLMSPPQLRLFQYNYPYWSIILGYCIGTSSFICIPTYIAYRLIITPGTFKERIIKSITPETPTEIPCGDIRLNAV

[2] = target: T2, Sodium-dependent noradrenaline transporter (Homo sapiens, UniProt P23975); test: Inhibition of [3H]-NE reuptake in human NET transfected into HEK293 cells at 10 uM by liquid scintillation counting method relative to venlafaxine HCl
T2 sequence (P23975 whole entry): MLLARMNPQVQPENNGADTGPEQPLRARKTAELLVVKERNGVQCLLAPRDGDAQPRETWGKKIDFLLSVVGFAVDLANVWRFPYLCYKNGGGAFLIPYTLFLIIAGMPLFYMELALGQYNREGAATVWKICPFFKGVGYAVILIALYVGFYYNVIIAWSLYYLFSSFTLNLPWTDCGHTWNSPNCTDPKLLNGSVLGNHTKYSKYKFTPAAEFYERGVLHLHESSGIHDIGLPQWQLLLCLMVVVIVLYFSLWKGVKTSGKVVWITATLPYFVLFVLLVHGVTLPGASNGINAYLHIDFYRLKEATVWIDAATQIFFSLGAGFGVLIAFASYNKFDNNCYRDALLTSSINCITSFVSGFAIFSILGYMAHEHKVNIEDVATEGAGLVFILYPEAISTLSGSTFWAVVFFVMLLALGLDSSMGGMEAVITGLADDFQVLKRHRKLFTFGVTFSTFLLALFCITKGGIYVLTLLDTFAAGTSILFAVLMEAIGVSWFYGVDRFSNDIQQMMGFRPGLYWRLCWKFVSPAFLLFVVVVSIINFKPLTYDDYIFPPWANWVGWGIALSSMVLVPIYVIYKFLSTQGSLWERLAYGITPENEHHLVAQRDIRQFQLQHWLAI

[3] = target: T1, Sodium-dependent serotonin transporter; test: Inhibition of [3H]-5-HT reuptake in human SERT transfected into HEK293 cells by liquid scintillation counting method
Target sequence in this assay (P31645 whole entry): as the sequence (P31645 whole entry, looked up) above

[4] = target: T2, Sodium-dependent noradrenaline transporter; test: Inhibition of [3H]-NE reuptake in human NET transfected into HEK293 cells by liquid scintillation counting method
[5] = target: T2, Sodium-dependent noradrenaline transporter; test: Inhibition of [3H]-NE reuptake in human NET transfected into HEK293 cells at 1 uM by liquid scintillation counting method relative to […]

Structure (SMILES): FC(F)(F)c1ccc(N2CCN(CCCN3CCC(Cc4ccccc4)CC3)CC2)cc1
- fold change (FC) [1]: 0.76
- fold change (FC) [2]: 1.34
- pIC50 [3]: 5.58
- pIC50 [4]: 5.93

Structure (SMILES): c1ccc(CC2CCN(CCCN3CCN(c4ccccc4)CC3)CC2)cc1
- fold change (FC) [1]: 0.58
- fold change (FC) [2]: 1.51
- pIC50 [3]: 5.87
- pIC50 [4]: 6.22

Structure (SMILES): COc1ccccc1N1CCN(CCN2CCC(Cc3ccccc3)CC2)CC1
- fold change (FC) [1]: 0.27
- fold change (FC) [5]: 0.2

Structure (SMILES): c1ccc(CC2CCN(CCN3CCN(c4ncccn4)CC3)CC2)cc1
- fold change (FC) [1]: 0.33
- fold change (FC) [5]: -0.05

Structure (SMILES): Clc1ccc(N2CCN(CCN3CCC(Cc4ccccc4)CC3)CC2)cc1
- fold change (FC) [1]: 0.56
- fold change (FC) [2]: 1.18

Structure (SMILES): COc1ccccc1N1CCN(CCCN2CCC(Cc3ccccc3)CC2)CC1
- fold change (FC) [1]: 2.4
- fold change (FC) [2]: 1.36
- pIC50 [3]: 5.75
- pIC50 [4]: 6.05

Structure (SMILES): Clc1ccc(N2CCN(CCCN3CCC(Cc4ccccc4)CC3)CC2)cc1
- fold change (FC) [1]: 0.44
- fold change (FC) [2]: 1.46
- pIC50 [3]: 5.69
- pIC50 [4]: 6.28

Structure (SMILES): Clc1ccc(N2CCN(CCN3CCC(Cc4ccccc4)CC3)CC2)c(Cl)c1
- fold change (FC) [1]: 0.85
- fold change (FC) [2]: 1.29
- pIC50 [3]: 5.36
- pIC50 [4]: 5.60

Structure (SMILES): Fc1ccc(N2CCN(CCN3CCC(Cc4ccccc4)CC3)CC2)cc1
- fold change (FC) [1]: 0.41
- fold change (FC) [2]: 1.16

Structure (SMILES): Clc1cccc(N2CCN(CCCN3CCC(Cc4ccccc4)CC3)CC2)c1
- fold change (FC) [1]: 0.69
- fold change (FC) [2]: 1.41
- pIC50 [3]: 5.93
- pIC50 [4]: 6.42

Structure (SMILES): Fc1ccc(N2CCN(CCCN3CCC(Cc4ccccc4)CC3)CC2)cc1
- fold change (FC) [1]: 0.27
- fold change (FC) [2]: 1.4

Structure (SMILES): Clc1cccc(N2CCN(CCN3CCC(Cc4ccccc4)CC3)CC2)c1
- fold change (FC) [1]: 0.41
- fold change (FC) [2]: 1.29

Structure (SMILES): Brc1ccc(N2CCN(CCN3CCC(Cc4ccccc4)CC3)CC2)cc1
- fold change (FC) [1]: 1.01
- fold change (FC) [2]: 1.31
- pIC50 [3]: 5.31
- pIC50 [4]: 5.68

Structure (SMILES): Clc1cccc(N2CCN(CCCN3CCC(Cc4ccccc4)CC3)CC2)c1Cl
- fold change (FC) [1]: 0.79
- fold change (FC) [2]: 1.63
- pIC50 [3]: 5.60
- pIC50 [4]: 6.25

Structure (SMILES): Brc1ccc(N2CCN(CCCN3CCC(Cc4ccccc4)CC3)CC2)cc1
- fold change (FC) [1]: 0.87
- fold change (FC) [2]: 1.6
- pIC50 [3]: 5.65
- pIC50 [4]: 6.21

Structure (SMILES): Cc1cccc(C)c1N1CCN(CCCN2CCC(Cc3ccccc3)CC2)CC1
- fold change (FC) [1]: 2.83
- fold change (FC) [2]: 1.37
- pIC50 [3]: 5.70
- pIC50 [4]: 5.97

Structure (SMILES): c1ccc(CC2CCN(CCN3CCN(c4ccccc4)CC3)CC2)cc1
- fold change (FC) [1]: 0.89
- fold change (FC) [2]: 1

Structure (SMILES): c1ccc(CC2CCN(CCN3CCN(c4ccccn4)CC3)CC2)cc1
- fold change (FC) [1]: 0.31
- fold change (FC) [5]: 0.08

Structure (SMILES): c1ccc(CC2CCN(CCCN3CCN(c4ccccn4)CC3)CC2)cc1
- fold change (FC) [1]: 0.32
- fold change (FC) [2]: 1.23

Structure (SMILES): Clc1ccc(N2CCN(CCCN3CCC(Cc4ccccc4)CC3)CC2)c(Cl)c1
- fold change (FC) [1]: 1.06
- fold change (FC) [2]: 1.45
- pIC50 [3]: 5.84
- pIC50 [4]: 6.12

Structure (SMILES): FC(F)(F)c1ccc(N2CCN(CCN3CCC(Cc4ccccc4)CC3)CC2)cc1
- fold change (FC) [1]: 0.69
- fold change (FC) [2]: 1.26

Structure (SMILES): Cc1cccc(C)c1N1CCN(CCN2CCC(Cc3ccccc3)CC2)CC1
- fold change (FC) [1]: 0.93
- fold change (FC) [2]: 1.26

Structure (SMILES): Clc1cccc(N2CCN(CCN3CCC(Cc4ccccc4)CC3)CC2)c1Cl
- fold change (FC) [1]: 0.64
- fold change (FC) [5]: 0.41

Structure (SMILES): c1ccc(CC2CCN(CCCN3CCN(c4ncccn4)CC3)CC2)cc1
- fold change (FC) [1]: 0.08
- fold change (FC) [2]: 1.01
